According to patent US4399290A, “Optically active tert-alkyl 7-(2-oxo-5-carbonyloxypyrrolidinyl)heptanoates” (E. I. Du Pont de Nemours and Company, priority 1981, dated 1983):

Tests used:
[1] = test system: stomach (necrosis and inflammation caused by ethanol); test: oral cytoprotection against absolute-ethanol-induced stomach necrosis and inflammation (similar to Robert, U.S. Pat. No. 4,097,603); format: in vivo, rat (fasted, male); details: for Percent Protection, 2 mg/kg 1 hr: 2 mg/kg oral, 1 hour interval between administration of compound and subsequent administration of ethanol; for cytoprotective potency relative to racemic form: optical isomer versus racemic form, Table 1 data
Experimental: The data of Table 1 are from tests similar to one described by Robert [U.S. Pat. No. 4,097,603 (1978)] in which fasted, male rats were treated with 8-azaprostanoids orally. Then, at various times later they were treated orally with 1.0 ml of absolute ethanol. The rats were sacrificed after ethanol administration and the stomachs were removed, inspected, and rated. The ED50 values of Table 1 represent the doses of 8-azaprostanoids that gave 50% protection from the necrosis and inflammation of the stomach caused by ethanol. For comparison, values are given for the natural prostaglandin, PGE1, and for racemic 7-[2-oxo-5(4,4-difluoro-3-hydroxy-1n-dec-1(E)-enyl)-1-pyrrolidinyl]heptanoic acid, which is identified in Table 1 as compound 8. The corresponding racemic tert-butyl ester is identified as 7. The structures of 7 and 8, each of which is a mixture of 4 optical isomers, are as follows: [drawing 18]
*"1 hr" refers to the 1 hour interval between administration of compound
and subsequent administration of ethanol.
**"Peak Time" refers to the interval between administration of compound
and administration of ethanol at which greatest protection is observed.

PGE1; rat stomach strips = test: antagonism of PGE1 in in vitro tests on rat stomach strips; details: relative to racemic form 7
Description: Some differences in biological activities of the racemic forms and different optical isomers of these 8-azaprostanoids can be seen in the data presented in Table 1.

| Compound | Percent Protection, 2 mg/kg 1 hr [1] [%] | cytoprotective potency relative to racemic form [1] | potency as an antagonist of PGE1 (PGE1; rat stomach strips) | Peak Time ([1]; interval between administration of compound and of ethanol at which greatest protection is observed) [min] |
| --- | --- | --- | --- | --- |
| CCCCCCC(F)(F)C(O)/C=C/C1CCC(=O)N1CCCCCCC(=O)OC(C)(C)C (single isomer, unassigned) [7d(15R,S), tert-butyl 7-[2-oxo-5-(S or R)-5-(4,4-difluoro-3(R,S)hydroxy-ln-dec-1(E)-enyl)-1-pyrrolidinyl]heptanoate] | -5 | less potent than its racemic form 7 | more potent than 7 as an antagonist of PGE1 |  |
| CCCCCCC(F)(F)C(O)/C=C/C1CCC(=O)N1CCCCCCC(=O)OC(C)(C)C (single isomer, unassigned) [7l(15R,S), tert-butyl 7-[2-oxo-5(R or S)-5-(4,4-difluoro-3(R,S)hydroxy-ln-dec-1(E)-enyl)-1-pyrrolidinyl]heptanoate] | 59 |  |  |  |
| CCCCCCC(F)(F)[C@H](O)/C=C/[C@H]1CCC(=O)N1CCCCCCC(=O)O (single isomer, unassigned) [8l(15R), 7-[2-oxo-5(R or S)-5-(4,4-difluoro-3(R or S)-3-hydroxy-ln-dec-1(E)enyl)-1-pyrrolidinyl]heptanoic acid] |  | more potent as a cytoprotective agent than its racemic form 8 |  |  |
| CCCCCCC(F)(F)[C@@H](O)/C=C/[C@H]1CCC(=O)N1CCCCCCC(=O)O (single isomer, unassigned) [8l(15S), 7-[2-oxo-5(R or S)-5-(4,4-difluoro-3(R or S)-3-hydroxy-ln-dec-1(E)enyl)-1-pyrrolidinyl]heptanoic acid] |  |  |  | 15 |
